# Assay: Human HepG2 cell viability assay in 384 well format
# Assay type: toxicity, cell-based
# Parameters: dose 125 nL, time 70.5 hour; concentration not given beside the values
# Conditions: HepG2 cells, read-out: Inhibition
row,SMILES,cytotoxicity at 70.5 h [%]
1,CCc1nc(CNC(=O)C2CCC(=O)N(Cc3ccccc3F)C2)no1 (stereo not given),-8.67
2,Cc1nc(N(C)C)ncc1C(=O)N[C@H]1Cc2ccccc2[C@@H]1N,-5.1
3,CCCn1ccnc1-c1nccn1CCC(N)=O,-7.75
4,CCC[C@@H]1CN(C(=O)c2cc(-c3cccs3)n(C)n2)C[C@H]1N(C)C,-8.43
5,COc1nc2c(cc1C(=O)NCc1noc(-c3ccco3)n1)CCC2,-7.17
6,CCN(Cc1noc(C2CCC2)n1)C(=O)CCc1cc2n(n1)CCNC2,-7.31
7,Cc1nc(N2C[C@@H](CN3CCCN(C)CC3)[C@@H](CO)C2)c2ccsc2n1,11.6
8,CCN1CCC(CC(=O)NCCc2nc(N)cc(O)n2)CC1,-2.8
9,COc1ccc(OC)c(-c2nc(CN(C)Cc3noc(C)n3)c(C)o2)c1,-21.2
10,CN1CCC(CNC(=O)CCSc2ccc3c(c2)OCCO3)C1 (stereo not given),-2.01
11,COc1cccc(CNC(=O)N2CCN3CCNC(=O)C3C2)c1 (stereo not given),-10.4
12,CCOc1ncccc1-c1cc2c(cc1C(N)=O)OCO2,-3.42
13,COc1ccc([C@@H](C)n2ccnc2-c2cc3n(n2)CCCNC3)cc1,18.8
14,COCCCN1CC2(CCN(C(=O)c3ccc(=O)n(C)c3)CC2)CC1=O,-9.99
15,CN(Cc1cccnc1)c1nc(-c2ccccn2)nc2c1CCNCC2,-5.18
16,CC(C)c1nnsc1CNC(=O)C1CCN(C(=O)C2CC2)CC1,2.6
17,CCN1CCCC1CN(Cc1cc[nH]n1)CC1CCN(CCOC)CC1 (stereo not given),6.24
18,N#Cc1ccccc1CN1CCC2(CC1)CC(c1ccccc1)C(=O)N2 (stereo not given),14
19,CCOC(=O)C1(Cc2cccc(Cl)c2)CCCN(Cc2ncc[nH]2)C1 (stereo not given),0.345
20,Cc1cc(CC(C)NC2CCSCC2)[nH]n1 (stereo not given),-5.1
21,COc1ccc(C(=O)NC2CC2)c(OC2CCN(CCCSC)CC2)c1,-1.03
22,O=C(O)[C@H]1C[C@H](C(=O)NCc2ccncc2)CN(CCC(F)(F)F)C1,-6.65

row,SMILES,cytotoxicity at 70.5 h [%]
1,N[C@@H]1c2ccccc2C2(CCN(C(=O)c3cncc(Cl)c3)CC2)[C@H]1O,19
2,Cc1ccc(CN(C)C(C(=O)O)c2ccc3c(c2)OCO3)o1 (stereo not given),-7.76
3,COc1ccc(N2CCN(C(=O)Cn3nccc3C)CC2(C)C)cc1,-0.615
4,O=C(C1CCCN(C2CCOCC2)C1)N1Cc2ccccc2C1 (stereo not given),13
5,Cn1c(=O)oc2ccc(NC(=O)N3CCSCC3)cc21,-18.1
6,COc1ccc2c(C)c(C(=O)NC3CCN(S(C)(=O)=O)CC3)oc2c1,-2.46
7,CCC[C@H]1CN(c2nccc(OC)n2)C[C@@H]1NC(=O)C1CCOCC1,-6.8
8,O[C@H]1[C@H](NCCc2cnccn2)c2ccccc2C12CCNCC2,-3.75
9,CCCC1(CO)CCCN(Cc2nccs2)C1 (stereo not given),-4.2
10,Cc1noc2ncnc(N3CCC(O)(Cn4ccnc4)CC3)c12,4.45
11,Cn1cc(C(=O)N2CCC(c3ncc[nH]3)CC2)cn1,-17.5
12,COCC(=O)N1CCN(C(=O)Cc2cccs2)[C@H]2CS(=O)(=O)C[C@H]21,-5.46
13,CCN(CCn1cccn1)Cc1nc(-c2ccc(C)o2)oc1C,13
14,Cc1cc(CC(C)Nc2nc(C3CCCC3)nc3c2cnn3C)[nH]n1 (stereo not given),-13
15,Cc1cc(CNC(=O)C(c2ccc(F)cc2)N(C)C)n[nH]1 (stereo not given),7.79
16,CN(C)c1ncc(CNC2CC(=O)N(CCc3cccc(Cl)c3)C2)s1 (stereo not given),-4.44
17,Cc1nc(-c2ccncc2)ncc1C(C)NC(=O)Cn1ccccc1=O (stereo not given),9.51
18,Cc1nn(C)c2nc(N3CCNC(=O)C3C(C)C)sc12 (stereo not given),10.4
19,CNC(=O)c1ccc(-n2c(COCC(=O)O)nc3c(C)cccc32)o1,-1.45
20,COc1cccc(C2CCCN2C(=O)c2cc3c(nc2OC)CCC3)c1 (stereo not given),-2.74
21,CCOC(=O)N1C[C@H]2CC[C@@H]1CN(Cc1ccccc1)C2,-6.47
22,CC(=O)N[C@@H]1CN(C2CCN(c3ccccc3F)CC2)C[C@H]1C(C)C,-10.5

row,SMILES,cytotoxicity at 70.5 h [%]
1,CC(C)(C)n1cc(C2=CCN(CCN3CCCCCC3)CC2)cn1,-4.69
2,C[C@@H]1CN(Cc2cc3ccccc3n2C)CC[C@@]1(O)C1CC1,-3.91
3,O=C(c1ccc2c(c1)OCO2)N1C[C@@H](CN2CCCCC2)[C@@H](CO)C1,-0.201
4,CN1CCN([C@@H]2CCN(Cc3ccc4cc(F)ccc4n3)C[C@H]2O)CC1,-1.96
5,CCCn1ccnc1-c1nccn1CCN(C)C,-2.58
6,O=C(O)[C@@H]1CN(C(=O)c2ccc(Cl)cc2)C[C@H]1c1cccc(F)c1,-12.9
7,CN(C)Cc1nnc(C2CCCN(c3nccc4ccccc34)C2)n1C (stereo not given),-12.2
8,O=C1CC[C@H]2CN(c3ncc(F)cn3)CC[C@H]2N1CCc1ccccn1,-5.32
9,Cc1c(CN2CCC(C(=O)O)(n3cccn3)CC2)oc2ccccc12,-2.29
10,Cc1cc(C)nc(N(C)CCN(C)C2CCCC2)n1,-6.11
11,CC(C)Cc1cc(CNc2nc(-c3cccnc3)nc3c2CNC3)no1,-15.7
12,Cc1nc(O)cc(C2CCCN(C(=O)c3cccc(N(C)C)c3)C2)n1 (stereo not given),5.24
13,CCOc1ccc(CN(CCOC)c2nc(C)nc3oc(C)nc23)cc1,-12.6
14,CCc1cn[nH]c1C1CCCN(C(=O)c2cc(C(C)C)on2)C1 (stereo not given),-2.01
15,CN(C)CCN1CC(C(=O)NCc2cccc(-n3cccn3)c2)CC1=O (stereo not given),-0.603
16,COc1ccccc1CN1C(=O)O[C@@H]2CN(Cc3cccc(C)n3)C[C@@H]21,20.9
17,Cc1ccncc1-n1cc(CCO)cn1,-5.86
18,O=C1CCCN1c1cccc(N2CCC(NCCc3cscn3)CC2)c1,-4.03
19,CN(C)C(=O)c1ccc2c(c1)N(C)C(CC(=O)NCCOCCO)CO2 (stereo not given),12.2
20,O=C(c1cccc(C2CCNC2)c1)N1CCC(c2ccncc2)CC1 (stereo not given),-18.3
21,Cc1ccc(C(=O)N2CC(Oc3ccccc3C)C2)s1,-12.1
22,CN1CCN(C(=O)N2C[C@H]3CC[C@@H]2CN(Cc2ccccc2)C3)CC1,-18.1

row,SMILES,cytotoxicity at 70.5 h [%]
1,COc1ccc(CN(C)C2CSCCSC2)c2cccnc12,-6.62
2,Cc1cc(C)cc(-c2cc(C3CCOC3)c(C#N)c(N)n2)c1 (stereo not given),12.8
3,Cn1ccnc1CN1C[C@@H](CN2CCCCCC2)[C@@H](CO)C1,1.19
4,CCc1[nH]c2c(CNC(=O)C3CCC(=O)NC3)cc(C)cc2c1C (stereo not given),-9.39
5,CN(CCCc1ccccc1)C(=O)c1ccccc1NCC(=O)O,-13.3
6,Cc1cc(C(=O)N2CCc3c(ncnc3N3CCOCC3)C2)[nH]n1,-1.64
7,Cc1nc(C)c(C)c(N2CCC(O)(c3ccc(F)cc3)CC2)n1,-6.02
8,CCN(CC)C(=O)c1ccc(Cl)c(NC(=O)c2cc(C(C)C)on2)c1,-12.4
9,COCCC1(C(=O)O)CCCN(Cc2cc3c(cc2C)OCO3)C1 (stereo not given),-2.46
10,CSc1ccc2c(C)cc(N[C@@H](C)CO)nc2c1,23.3
11,CC(Cn1cncn1)NCCN1CCc2ccccc2C1 (stereo not given),-6.48
12,CC(C)NS(=O)(=O)c1cc(C(=O)O)cc(-c2ccc3c(c2)OCO3)c1,-9.21
13,Cc1nc(O)cc(CCNC(=O)c2ccc(CN3CCCCC3)cc2)n1,0.488
14,Nc1cnc(-c2cccc3ccnn23)cn1,14.2
15,Cc1ccc(OC2(C(=O)NC(C)c3csc(C)n3)CCNCC2)cc1 (stereo not given),22.5
16,C=C(C)COc1ccc(C(=O)NCC2CC(CC)=NO2)cc1 (stereo not given),-15.2
17,CN(Cc1ccsc1)Cc1nc(-c2cnccn2)no1,-6.12
18,CN(C)C(C(=O)NCCS(=O)(=O)N(C)C)c1cccc(F)c1 (stereo not given),8.21
19,O=C(Nc1nncs1)N1CCC(CCO)CC1,-7.1
20,Cc1ccc(-n2cc(CN3CCOCC(CN(C)C)C3)cn2)cc1C (stereo not given),37.2
21,Cc1nc(CCN)cc(N2CCCN(C(=O)c3ccco3)CC2)n1,-4.43
22,CC(C)Cc1nc(CS(C)(=O)=O)n(-c2ccccn2)n1,-7.54

row,SMILES,cytotoxicity at 70.5 h [%]
1,Cc1ccnn1CC(=O)N(C)Cc1cnn(-c2ccccc2)c1,-1.98
2,Nc1ncc(CN2C[C@H](C3CC3)[C@@H](N)C2)cn1,-5.66
3,CN(C)c1ncc(CN2CCCC(Nc3ccc4c(c3)OCCO4)C2)s1 (stereo not given),-12.3
4,Cc1cc(C)c2[nH]c(=O)c(CN3CCCC(O)(CO)C3)cc2c1 (stereo not given),-13.5
5,COc1ccc(-n2cccn2)c(CN2CCC3(CCNCC3)C2)c1,-9.48
6,Cc1cccc(OC2(C(=O)O)CCN(C(=O)CCc3ccco3)CC2)c1,30.3
7,Cc1ccccc1N1CCN(C(=O)c2ncc(F)cc2F)C(C)C1 (stereo not given),-3.38
8,COc1cccc(-c2ncc(CN3CC[C@H](CO)[C@@H](O)C3)s2)c1,-20.8
9,O=C(c1cc(F)cc(Cl)c1)N1C[C@@H]2CC[C@H](C1)N(Cc1ccccc1)C2,-3.75
10,Cc1ccccc1N1CCCN(C(=O)CCc2cccnc2)CC1,0.239
11,CCNC(=O)[C@@H]1C[C@H](N)CN1C(=O)c1c[nH]c2ccccc12,-0.954
12,O=C(O)C1(Oc2ccc3ccccc3c2)CCN(c2ccncc2)CC1,21.4
13,C=C(C)COc1cccc(C(=O)N(C)C(C)c2ccncn2)c1 (stereo not given),-7.56
14,Cc1cc(C)cc(CN2CCN(C(=O)CCc3n[nH]c(C)n3)CC2=O)c1,22.5
15,CCCOc1ccc(OCCN2CCOCS2(=O)=O)cc1,-10.3
16,CN(Cc1cc2cc(F)ccc2[nH]1)C(=O)C1CC(=O)N(C2CCCC2)C1 (stereo not given),-4.53
17,O=C(NCC1CCCO1)c1coc(Cn2cnc3ccccc32)n1 (stereo not given),-4.46
18,CC(=O)NCCc1nc(C(C)C)nn1-c1ccncc1C,-14.7
19,COCC(=O)N1CCc2cccc(S(=O)(=O)N3CCOCC3)c2C1,-6.37
20,CN(CCc1ccccn1)C(=O)CCC1CCCN(c2ccncc2)C1 (stereo not given),0
21,CCSCCn1cc(-c2nccs2)nn1,-9.08
22,COc1cccc(-c2cccc(-c3ccn(CC4COCCO4)n3)c2)n1 (stereo not given),13.1

# Source: ChEMBL document CHEMBL3507680, “University of Dundee, Gates Library screen for HepG2 cell viability”
